Laboratory results published in patent publication US9797002B2, “Methods and kits for genome-wide methylation of GpC sites and genome-wide determination of chromatin structure” (UNIVERSITY OF SOUTHERN CALIFORNIA, priority 2010, dated 2017).

Tested on: LD419
Test: RT-PCR analysis of L1-MET reactivation after 5-Aza-CdR treatment
Assay type: cell-based, human
Details: LD419 fibroblast cell line, 1 or 3 μM 5-Aza-CdR for 24 hours (day 3 after treatment), β-actin control
Excerpt: (A) The functional domains of MET include the signal peptide (SP), sema domain at the N-terminus, the PSI domain, IPT repeats, the transmembrane domain (TM), and the kinase domain at the C-terminus. The structure of truncated MET proteins 1 and 2 are shown, encoded by transcripts derived from placenta (GenBank accession no. BX334980) and a bladder carcinoma cell line (BF208095), respectively. (B) The two […] transcripts, truncated L1-MET-1 (T-MET-1) and truncated L1-MET-2 (T-MET-2), were cloned into a pMEV expression vector with 2 HA tags fused at the N-terminal. Hela cells were transfected with either the empty pMEV vector, pMEV T-MET-1, or pMEV T-MET-2 and protein was extracted after 48 hours. The expression of truncated MET-1 (90 kDa) and truncated MET-2 (60 kDa) was detected by western blot using an HA antibody. (C) Results of 5′RACE reveal the start site for L1-MET within the L1 element. The transcriptional start site of L1-MET was confirmed by 5′RACE in the T24 cell line which expressed L1-MET. The underlined sequence is located inside of the LINE-1. […] Found at: doi:10.1371/journal.pgen. 1000917.s002 (1.22 MB TIF)
The transcript from the L1-MET anti-sense promoter contains its own exons 1 and 2, referred to as L1-MET exon 1 and L1-MET exon 2 (FIG. 7A). […]
Quantitative RT-PCR. Expression was determined by quantitative RT-PCR as described previously.

SMILES: Nc1ncn([C@H]2C[C@H](O)[C@@H](CO)O2)c(=O)n1 [5-aza-deoxycytidine]
- expression (reactivation) of the L1-MET transcript: lead to expression of L1-MET
- expression (reactivation) of the L1-MET transcript (listed as 5-Aza-CdR): reactivation of L1-MET
